In patent publication US8852619B2, “Compositions of dibromomalonamide and their use as biocides” (Dow Global Technologies LLC, priority 2009, dated 2014):
Like-named read-outs stand apart in the source and are kept apart here.

Key:
[1] = test system: consortium of bacteria: mixture of Pseudomonas aeruginosa, Klebsiella pneumoniae, Staphylococcus aureus, and Bacillus subtilis; test: Growth inhibition assay (microtiter plate-based synergy assay); format: cell-based; conditions: used alone, 24 hr
Protocol: (§1) The assay of this Example measures the efficacy of the biocides at preventing growth of a consortium of bacteria in a dilute mineral salts medium. The medium contains (in mg/l) the following components: FeCl3.6H2O (1); CaCl2.2H2O (10); MgSO4.7H2O (22.5); (NH4)2SO4 (40); KH2PO4 (10); K2HPO4 (25.5); Yeast Extract (10); and glucose (100). After all components are added to deionized water, the pH of the medium is adjusted to 7.5. Following filter sterilization, aliquots are dispensed in […] quantities to sterile microtiter plate wells. Dilutions of 2,2-dibromomalonamide (“DBMAL”) and/or “Biocide B” are then added to the microtiter plate. After preparing the combinations of actives as illustrated below, each well is inoculated with 100 μl of a cell suspension containing ca. 1×10^6 cells per milliliter of a mixture of Pseudomonas aeruginosa, Klebsiella pneumoniae, Staphylococcus aureus, and Bacillus subtilis. The final total volume of medium in each well is 300 μl. Once prepared as described herein, the concentration of each active ranges from 25 ppm to 0.195 ppm as illustrated in Table 1. The resulting matrix allows testing of eight concentrations of each active and 64 combinations of actives at varying ratios.
(§2) Controls (not shown) contain the medium with no biocide added. Immediately after the microtiter plates are prepared, the optical density (OD) readings for each well are measured at 600 nm and the plates are then incubated at 37° C. for 24 hr. After the incubation period, the plates are gently agitated before OD values are collected. The OD values at t(0) are subtracted from t(24) values to determine the total amount of growth (or lack thereof) that occurs. These values are used to calculate the percent inhibition of growth caused by the presence of each biocide and each of the 64 combinations.
(§3) where • MDBMAL: Concentration of DBMAL required to inhibit ˜90% of bacterial growth when used in combination with DBNPA. • CDBMAL: Concentration of DBMAL required to inhibit ˜90% of bacterial growth when used alone. • MDBNPA: Concentration of DBNPA required to inhibit ˜90% of bacterial growth when used in combination with DBMAL. • CDBNPA: Concentration of DBNPA required to inhibit ˜90% of bacterial growth when used alone. The SI values are interpreted as follows: • SI<1: Synergistic combination • SI=1: Additive combination • SI>1: Antagonistic combination
(§4) In the Example, the amounts of biocides in the solution are measured in mg per liter of solution (mg/l). Since solution densities are approximately 1.00, the mg/l measurement corresponds to weight ppm. Both units may therefore be used interchangeably in the Examples.

[2] = as above; format: cell-based; conditions: 24 hr, read-out: Percent inhibition of growth; for inhibition at 0.2 ppm: 0.20 ppm; for inhibition at 12.5 ppm: 12.50 ppm
Protocol: as §1, §2, §3, §4

[3] = cited from earlier work

Row | Structure (SMILES) | Minimum concentration that caused ~90% inhibition of growth (CDBNPA) [1] | inhibition at 0.2 ppm ([2]; DBNPA alone) | inhibition at 0.39 ppm ([2]; DBNPA alone, 0.39 ppm) | inhibition at 0.78 ppm ([2]; DBNPA alone, 0.78 ppm) | inhibition at 1.56 ppm ([2]; DBNPA alone) | inhibition at 3.13 ppm ([2]; DBNPA alone, 3.13 ppm) | inhibition at 6.25 ppm ([2]; DBNPA alone) | inhibition at 12.5 ppm ([2]; DBNPA alone) | inhibition at 25 ppm ([2]; DBNPA alone) | factor of increase of rate of disappearance ([3]; going from pH 6 to pH 8.9) | half life (hydrolytic degradation) ([3]; pH 8) | half life (hydrolytic degradation) ([3]; pH 11.3) | inhibition at 0.2 ppm ([2]; DBMAL alone) | inhibition at 1.56 ppm ([2]; DBMAL alone) | inhibition at 6.25 ppm ([2]; DBMAL alone) | inhibition at 12.5 ppm ([2]; DBMAL alone) | inhibition at 25 ppm ([2]; DBMAL alone)
1 | N#CC(Br)(Br)C(N)=O [DBNPA, 2,2-dibromo-3-nitrilopropionamide] | 3.13 mg/L | 0% | 0% | 0% | 75% | 98% | 82% | 88% | 96% | about 450 | 2 h | 0.00694 h | – | – | – | – | –
2 | NC(=O)C(Br)(Br)C(N)=O [DBMAL, 2,2-dibromomalonamide] | – | – | – | – | – | – | – | – | – | – | – | – | 0% | 11% | 38% | 92% | 96%
